Here are results for four molecules from ChEMBL document CHEMBL3046063, “Synthesis and antimicrobial activity of 5-chloroindoline-2,3-dione derivatives” (2012).

In brackets after ≈: the same amount, converted by molar mass.

Common to all, as to assay type: functional
In assay [1] the test system is Aspergillus niger. Description: Antimicrobial activity against Aspergillus niger ATCC 9142 after 24 hr by broth dilution method. To be noted: ATCC 9142, 24 h.
The test system of assay [2] is Proteus mirabilis. Description: Antimicrobial activity against Proteus mirabilis ATCC 49565 after 24 hr by broth dilution method. As to conditions: ATCC 49565, 24 h. (In general: Broth dilution looks for growth in wells or tubes with falling amounts of substance.)
Assay [3] has as its system Alternaria alternata. Briefly: Antimicrobial activity against Alternaria alternata ATCC 66868 after 24 hr by broth dilution method. To be noted: ATCC 66868, 24 h.
The subject of assay [4] is Micrococcus luteus. Briefly: Antimicrobial activity against Micrococcus luteus ATCC 4698 after 24 hr by broth dilution method. As to conditions: ATCC 4698, 24 h.
Assay [5] has as its system Trichoderma viride. Description: Antimicrobial activity against Hypocrea rufa ATCC 52440 after 24 hr by broth dilution method. As to conditions: ATCC 52440, 24 h.
Assay [6] has as its system Pseudomonas aeruginosa. Briefly: Antimicrobial activity against Pseudomonas aeruginosa ATCC 10145 after 24 hr by broth dilution method. As to conditions: ATCC 10145, 24 h.
Assay [7] concerns Trichophyton longifusum. Briefly: Antimicrobial activity against Trichophyton longifusum ATCC 22397 after 24 hr by broth dilution method. As to conditions: ATCC 22397, 24 h.
The test system of assay [8] is Bacillus spizizenii. Description: Antimicrobial activity against Bacillus subtilis subsp. spizizenii ATCC 6633 after 24 hr by broth dilution method. As to conditions: ATCC 6633, 24 h.
In assay [9] the test system is Staphylococcus epidermidis. Description: Antimicrobial activity against Staphylococcus epidermidis ATCC 12228 after 24 hr by broth dilution method. As to conditions: ATCC 12228, 24 h.
For assay [10], the system named is Klebsiella pneumoniae. Briefly: Antimicrobial activity against Klebsiella pneumoniae ATCC 13883 after 24 hr by broth dilution method. To be noted: ATCC 13883, 24 h.
Assay [11] deals with Escherichia coli. Description: Antimicrobial activity against Escherichia coli ATCC 25922 after 24 hr by broth dilution method. To be noted: ATCC 25922, 24 h.
Assay [12] concerns Aspergillus flavus. Briefly: Antimicrobial activity against Aspergillus flavus ATCC 15517 after 24 hr by broth dilution method. As to conditions: ATCC 15517, 24 h.
For assay [13], the system named is Bacillus cereus. Briefly: Antimicrobial activity against Bacillus cereus ATCC 11778 after 24 hr by broth dilution method. As to conditions: ATCC 11778, 24 h.
Assay [14] deals with Staphylococcus aureus. Briefly: Antimicrobial activity against Staphylococcus aureus ATCC 25923 after 24 hr by broth dilution method. To be noted: ATCC 25923, 24 h.
In assay [15] the test system is Candida albicans. Description: Antimicrobial activity against Candida albicans ATCC 10231 after 24 hr by broth dilution method. As to conditions: ATCC 10231, 24 h.
Assay [16] relates to Bacillus pumilus. Description: Antimicrobial activity against Bacillus pumilus ATCC 14884 after 24 hr by broth dilution method. As to conditions: ATCC 14884, 24 h.
In assay [17] the test system is Proteus vulgaris. Briefly: Antimicrobial activity against Proteus vulgaris ATCC 13315 after 24 hr by broth dilution method. To be noted: ATCC 13315, 24 h.
The test system of assay [18] is Microsporum canis. Description: Antimicrobial activity against Arthroderma otae ATCC 11622 after 24 hr by broth dilution method. As to conditions: ATCC 11622, 24 h.
For assay [19], the system named is Salmonella typhi. Briefly: Antimicrobial activity against Salmonella enterica subsp. enterica serovar Typhi ATCC 19430 after 24 hr by broth dilution method. As to conditions: ATCC 19430, 24 h.
Assay [20] relates to Rhizoctonia solani. Description: Antimicrobial activity against Rhizoctonia solani ATCC 76131 after 24 hr by broth dilution method. To be noted: ATCC 76131, 24 h.
Assay [21] concerns Staphylococcus hominis. Description: Antimicrobial activity against Staphylococcus hominis ATCC 27844 after 24 hr by broth dilution method. To be noted: ATCC 27844, 24 h.
In assay [22] the test system is Aspergillus fumigatus. Description: Antimicrobial activity against Aspergillus fumigatus after 24 hr by broth dilution method.
Assay [23] relates to Aspergillus awamori. Description: Antimicrobial activity against Aspergillus awamori ATCC 22342 after 24 hr by broth dilution method. To be noted: ATCC 22342, 24 h.
Assay [24] relates to Fusarium solani. Description: Antimicrobial activity against Fusarium solani ATCC 38136 after 24 hr by broth dilution method. To be noted: ATCC 38136, 24 h.

What is called MIC is the lowest concentration that inhibits growth of the organism. Take `O=C1Nc2ccc(Cl)cc2/C1=N/N1C(=O)CSC1c1ccc([N+](=O)[O-])cc1` (stereo unspecified): the MIC in assay [1] is 4.68 µg/mL (≈ 11.6 µM); in assay [2], 18.8 µg/mL (≈ 46.5 µM); in [3], 4.68 µg/mL (≈ 11.6 µM); in assay [4] it was 9.37 µg/mL (≈ 23.3 µM); in assay [5], 9.37 µg/mL (≈ 23.3 µM); in [6], 9.37 µg/mL (≈ 23.3 µM). The MIC in assay [7] was 4.68 µg/mL (≈ 11.6 µM); in assay [8] it was 37.5 µg/mL (≈ 93.1 µM); in [9] it was 18.8 µg/mL (≈ 46.5 µM); in assay [10], 9.37 µg/mL (≈ 23.3 µM); in assay [11] it was 18.8 µg/mL (≈ 46.5 µM); in assay [12], 4.68 µg/mL (≈ 11.6 µM). For the same molecule, the MIC in [13] was 18.8 µg/mL (≈ 46.5 µM); in assay [14], 9.37 µg/mL (≈ 23.3 µM); in assay [15], 9.37 µg/mL (≈ 23.3 µM); in assay [16] it was 18.8 µg/mL (≈ 46.5 µM); in [17], 37.5 µg/mL (≈ 93.1 µM); in [18], 4.68 µg/mL (≈ 11.6 µM). The MIC in assay [19] came to 18.8 µg/mL (≈ 46.5 µM); in assay [20], 9.37 µg/mL (≈ 23.3 µM); in assay [21], 9.37 µg/mL (≈ 23.3 µM); in [22] it was 4.68 µg/mL (≈ 11.6 µM); in [23], 9.37 µg/mL (≈ 23.3 µM); in [24], 9.37 µg/mL (≈ 23.3 µM).

As for `COc1ccc(C2SCC(=O)N2/N=C2\C(=O)Nc3ccc(Cl)cc32)cc1` (stereo unspecified), the MIC is 4.68 µg/mL (≈ 12.1 µM) in [1]; 9.37 µg/mL (≈ 24.2 µM) in assay [2]; 9.37 µg/mL (≈ 24.2 µM) in assay [3]; 18.8 µg/mL (≈ 48.3 µM) in assay [4]; 4.68 µg/mL (≈ 12.1 µM) in assay [5]; 18.8 µg/mL (≈ 48.3 µM) in assay [6]. Also, the MIC in assay [7] amounted to 4.68 µg/mL (≈ 12.1 µM); in [8], 9.37 µg/mL (≈ 24.2 µM); in assay [9], 9.37 µg/mL (≈ 24.2 µM); in [10] it was 9.37 µg/mL (≈ 24.2 µM); in [11], 18.8 µg/mL (≈ 48.3 µM); in assay [12], 9.37 µg/mL (≈ 24.2 µM). For the same molecule, the MIC in assay [13] came to 18.8 µg/mL (≈ 48.3 µM); in assay [14] it was 18.8 µg/mL (≈ 48.3 µM); in assay [15], 4.68 µg/mL (≈ 12.1 µM); in [16] it was 18.8 µg/mL (≈ 48.3 µM); in [17] it was 37.5 µg/mL (≈ 96.7 µM); in [18] it was 9.37 µg/mL (≈ 24.2 µM). For the same molecule, the minimum inhibitory concentration (MIC) in [19] worked out at 9.37 µg/mL (≈ 24.2 µM); in assay [20], 9.37 µg/mL (≈ 24.2 µM); in assay [21], 18.8 µg/mL (≈ 48.3 µM); in assay [22], 4.68 µg/mL (≈ 12.1 µM); in assay [23], 4.68 µg/mL (≈ 12.1 µM); in [24], 4.68 µg/mL (≈ 12.1 µM).

For `O=C1Nc2ccc(Cl)cc2/C1=N/N1C(=O)CSC1c1ccco1` (stereo unspecified), the MIC in assay [1] turned out to be 37.5 µg/mL (≈ 108 µM); in assay [2], 75 µg/mL (≈ 216 µM); in [3] it was 37.5 µg/mL (≈ 108 µM); in [4] it was 75 µg/mL (≈ 216 µM); in assay [5], 37.5 µg/mL (≈ 108 µM); in assay [6], 75 µg/mL (≈ 216 µM). Moreover, the MIC came out at 18.8 µg/mL (≈ 53.9 µM) in [7]; 37.5 µg/mL (≈ 108 µM) in [8]; 75 µg/mL (≈ 216 µM) in assay [9]; 75 µg/mL (≈ 216 µM) in assay [10]; 75 µg/mL (≈ 216 µM) in [11]; 37.5 µg/mL (≈ 108 µM) in assay [12]. The MIC came out at 75 µg/mL (≈ 216 µM) in [13]; 75 µg/mL (≈ 216 µM) in assay [14]; 18.8 µg/mL (≈ 53.9 µM) in assay [15]; 37.5 µg/mL (≈ 108 µM) in assay [16]; 75 µg/mL (≈ 216 µM) in assay [17]; 37.5 µg/mL (≈ 108 µM) in [18]. The MIC in [19] was determined as 37.5 µg/mL (≈ 108 µM); in [20], 18.8 µg/mL (≈ 53.9 µM); in assay [21] it was 37.5 µg/mL (≈ 108 µM); in [22], 18.8 µg/mL (≈ 53.9 µM); in assay [23], 37.5 µg/mL (≈ 108 µM); in [24], 37.5 µg/mL (≈ 108 µM).

Take `O=C1Nc2ccc(Cl)cc2/C1=N/N1C(=O)C(Cl)C1c1ccccc1Cl` (stereo unspecified): the minimum inhibitory concentration (MIC) in assay [1] was 150 µg/mL (≈ 380 µM); in assay [2] it was 300 µg/mL (≈ 760 µM); in [3], 150 µg/mL (≈ 380 µM); in assay [4], 150 µg/mL (≈ 380 µM); in assay [5], 150 µg/mL (≈ 380 µM); in assay [6], 300 µg/mL (≈ 760 µM). In addition, the MIC in assay [7] was determined as 150 µg/mL (≈ 380 µM); in assay [8] it was 150 µg/mL (≈ 380 µM); in assay [9] it was 150 µg/mL (≈ 380 µM); in [10] it was 300 µg/mL (≈ 760 µM); in assay [11], 150 µg/mL (≈ 380 µM); in [12], 150 µg/mL (≈ 380 µM). The MIC turned out to be 300 µg/mL (≈ 760 µM) in assay [13]; 300 µg/mL (≈ 760 µM) in assay [14]; 75 µg/mL (≈ 190 µM) in assay [15]; 300 µg/mL (≈ 760 µM) in [16]; 150 µg/mL (≈ 380 µM) in assay [17]; 75 µg/mL (≈ 190 µM) in [18]. Besides, the MIC in assay [19] worked out at 300 µg/mL (≈ 760 µM); in assay [20], 150 µg/mL (≈ 380 µM); in assay [21], 300 µg/mL (≈ 760 µM); in [22], 150 µg/mL (≈ 380 µM); in assay [23], 150 µg/mL (≈ 380 µM); in assay [24] it was 150 µg/mL (≈ 380 µM).
